Legend:
[1] = tested on: ATF3; assay: Western blot analysis of ATF3 in SK-Hep1 cells grown on Met and Met sulfoxide media; format: cell-based, human; settings: 72 hours, compared with cells on Met or Met-SO
Procedure: Analysis of SK-Hep1 and fRMsr-transfected SK-Hep1 cells—SK-Hep1 and fRMsr-transfected SK-Hep1 cells were plated in 6-well plates at 7.5×10^4 cells/well in regular DMEM medium. The medium was changed to Met-free DMEM supplemented with either Met or individual Met sulfoxides at 24 hours after plating. Cells were then collected every 24 hours until 96 hours. Protein concentration was measured by the Bradford assay and the samples were probed by standard immunoblot assays with polyclonal MsrA (kindly provided by Bertrand Friguet), cystathionine beta synthase (CBS) (kindly provided by Ruma Banerjee), and activating transcription factor 3 (ATF3) (Santa Cruz Biotechnology) antibodies.

[2] = tested on: yfRMsr transfected SK-Hep1; assay: Specific activity of yfRMsr transfected SK-Hep1 cells towards free Met sulfoxides; format: biochemical, human; settings: for Specific activity of fRMsr-transfected cells: fRMsr-transfected SK-Hep1 cells; for Specific activity for each Met-O: yfRMsr transfected SK-Hep1, ± standard deviations from 3 independent experiments
Procedure: Transfection of yeast fRMsr gene into SK-Hep1 cells—A 6 His-tag sequence was cloned at the C-terminus of yeast fRMsr, the sequence was inserted into a mammalian expression vector, pCI-neo (Promega), and the resulting construct was verified by DNA sequencing. […] To establish a stable cell line, cells were selected in the presence of 800 μg/mL G418 sulfate (Promega), and further maintained in the presence of 400 μg/mL G418 sulfate. Expression of recombinant fRMsr was verified by western blotting using anti-His-tag antibodies and Msr activities were assayed by an HPLC method using OPA derivatization.
Activity assays of fRMsr—Reaction mixture (40 μL) included 50 mM DTT, 1 mM substrate (Met-RO or Met-SO), and purified enzyme or cell lysate prepared by treatment with CelLytic™M cell lysis reagent (Sigma). 20 μL of the reaction mixture was mixed with 2 μL of TCA and subjected to OPA derivatization as described above and then injected onto the column to measure endogenous Met level in the samples. An additional 20 μL from the same original reaction mixture were incubated at 37° C. for 30 minutes and then subjected to OPA derivatization by the same procedure using TCA. After derivatization of the sample (2-5 μL) by adding OPA solution to 100 μL as a final volume, 50 μL of the mixture were subjected to an HPLC separation as described above.

[3] = tested on: yeast fRMsr-transfected SK-Hep1 cells; assay: Growth and morphology of yeast fRMsr-expressing SK-Hep1 cells on Met sulfoxide media; format: cell-based, human; settings: 0.1 mM
Procedure: Proliferation Assay-Cell growth was quantified using colorimetric MTS assay (Promega). Cells in regular DMEM medium were plated in 96-well plates at 5×10^3 cells/well, washed with PBS, and specialized DMEM media were added that contained Met, Met-SO, Met-RO, or Met-RSO 24 hours after plating. To assay for cell proliferation, a tetrazolium compound [3-(4,5-dimethylthiazol-2-yl)-5-(3-carboxymethoxyphenyl)-2-(4-sulfophenyl)-2H-tetrazolium, inner salt; MTS] and an electron coupling reagent (phenazine methosulfate; PMS) were mixed according to the manufacturer's protocol and then 20 μL of the mixture were added to 100 μL of phenol red-excluded media that further replaced cell culture media. After 90 minutes of incubation at 37° C. in the atmosphere of 5% CO2, cell proliferation was measured at indicated time periods from 0 to 96 hours at 450 nm in a plate reader. Direct counting of viable cells using 0.2% trypan blue was done in 6-well plates. Transfection of […] into SK-Hep1 cells-[…]-tag sequence was cloned at the C-terminus of […] sequence was inserted into a mammalian expression vector, pCI-neo (Promega), and the resulting construct was verified by DNA sequencing. […] To establish a stable cell line, cells were selected in the presence of 800 μg/mL G418 sulfate (Promega), and further maintained in the presence of 400 μg/mL G418 sulfate. […]

C[S@@+]([O-])CC[C@H](N)C(=O)O [Met-RO, methionine-R-sulfoxide]
Expression levels of ATF3 [1]: low expression levels of ATF3 | Specific activity of fRMsr-transfected cells [2]: ≈ 46.4 pmol/min/mg protein | Specific activity for each Met-O [2]: 46.4 ± 5.0 pmol/min/mg | Growth of fRMsr-transfected cells [3]: essentially indistinguishable from that of cells grown in the presence of Met

C[S@+]([O-])CC[C@H](N)C(=O)O [Met-SO, methionine-S-sulfoxide]
Specific activity of fRMsr-transfected cells [2]: ≈ 42.7 pmol/min/mg protein | Specific activity for each Met-O [2]: 42.7 ± 5.9 pmol/min/mg | Growth of fRMsr-transfected cells [3]: essentially indistinguishable from that of cells grown in the presence of Met
